In patent US20200216316A1, “METHOD FOR THE MANUFACTURE OF CYCLODODECASULFUR” (EASTMAN CHEMICAL COMPANY, priority 2016, published 2020):

Tests used:
[1] = Solubility of sulfur species in p-xylene, chlorobenzene and carbon disulfide (sulfur content of equilibrated supernatant by Uniquant); assay type: physicochemical
Description: Fifty grams of p-xylene was added to each of three identical 100-milliliter jacketed glass vessels fitted with a circulating heating bath, cooling water condenser, magnetic stir bar and stir plate, and nitrogen purge. All vessels were heated to the desired temperature, and cyclooctasulfur, cyclododecasulfur (prepared as in Example 2), and unoiled commercial crystalline polymeric sulfur (Crystex™) was added in sufficient quantities to each of the glass vessels to allow undissolved solids to remain after dissolution and equilibration of the mixture. The equilibration period typically lasted 2 to 8 hours, during which the contents of the vessel were maintained at the desired temperature and stirred continuously. Upon equilibration, supernatant liquid was withdrawn from the vessels via a heated fritted glass pipette (heated to the same temperature as the solution). The supernatants were analyzed by Uniquant to determine sulfur content, indicating the solubility of the sulfur species at the vessel temperature. Similar experiments were conducted for carbon disulfide and chlorobenzene for each of the three solutes.

[2] = Thermal decomposition in p-xylene at 115° C. (sulfur content of supernatant by Uniquant); assay type: physicochemical; settings: for Content of sulfur in the p-xylene solvent: 115° C.
Description: The purpose of this experiment was to determine the rate that polymeric sulfur thermally decomposes into cyclooctasulfur in p-xylene. Polymeric sulfur is essentially insoluble in p-xylene, except when the polymer decomposes into cyclooctasulfur. Thus, the sulfur content in the p-xylene is a measure of the amount of polymeric sulfur that has decomposed to cyclooctasulfur. In this experiment, 50.32 grams of p-xylene were added to a 100-milliliter jacketed glass vessels fitted with a circulating heating bath, cooling water condenser, magnetic stir bar and stir plate, and nitrogen purge. The p-xylene was heated to 115° C. and 2.03 grams of unoiled commercial crystalline polymeric sulfur (Crystex™) was added while stirring. Periodically samples of the supernatant liquid were withdrawn from the vessel via a heated fritted glass pipette (heated to the same temperature as the solution). These supernatant samples were analyzed by Uniquant to determine sulfur content. The sulfur content was used to calculate the amount of polymeric sulfur remaining undissolved and undecomposed to cyclooctasulfur. After 60 and 75 minutes at 115° C., about 85% and essentially 100% respectively, of the polymeric sulfur had been converted into cyclooctasulfur.
The equipment and procedure used in Example 22 for measurement of the decomposition of polymeric sulfur was used to measure the decomposition of cyclododecasulfur in para-xylene. Two grams of purified cyclododecasulfur (produced by a procedure in the fashion of Example 2) was heated and stirred in 50.0 grams of p-xylene in a 100-milliliter jacketed glass vessels fitted with a circulating heating bath, cooling water condenser, magnetic stir bar and stir plate, and nitrogen purge. After 60, 75, and 120 minutes at 115° C., the content of sulfur in the p-xylene solvent was found by Uniquant to be about 0.4 wt % in each case, similar to the solubility of cyclododecasulfur in p-xylene at 115° C. (see Example 21). Upon cooling of the p-xylene, filtration, and drying of the recovered solids overnight in a vacuum oven at room temperature and 0.067 MPa (absolute), greater than 97% of the cyclododecasulfur input weight of solids was recovered.

SMILES | Solubility in weight % of solute in solvent ([1]; CS2, 22 ° C.) | Solubility in weight % of solute in solvent ([1]; CS2, 45 ° C.) | Solubility in weight % of solute in solvent ([1]; Cl-benzene, 22 ° C.) | Solubility in weight % of solute in solvent ([1]; Cl-benzene, 45 ° C.) | Solubility in weight % of solute in solvent ([1]; P-xylene, 22 ° C.) | Solubility in weight % of solute in solvent ([1]; P-xylene, 45 ° C.) | Solubility in weight % of solute in solvent ([1]; Cl-benzene, 115 ° C.) | Solubility in weight % of solute in solvent ([1]; P-xylene, 115 ° C.) | Input weight of solids recovered after heating ([2]; after 120 minutes at 115° C. in p-xylene, cooling, filtration and drying) | Fraction decomposed/converted to cyclooctasulfur ([2]; mixture of polymeric sulfur and cyclododecasulfur in p-xylene at 115° C. for two hours) | Content of sulfur in the p-xylene solvent ([2]; 60 minutes) | Content of sulfur in the p-xylene solvent ([2]; 75 minutes) | Content of sulfur in the p-xylene solvent ([2]; 120 minutes)
S1SSSSSSS1 [Cyclooctasulfur, cyclooctasulfur, reference compound] | 32 wt % | 48 wt % | 2.4 wt % | 6.2 wt % | 2.3 wt % | 5.6 wt % | – | – | – | – | – | – | –
S1SSSSSSSSSSS1 [Cyclododecasulfur, cyclododecasulfur] | 0.2 wt % | 0.5 wt % | – | 0.015 wt % | – | <0.05 wt % | 0.44 wt % | 0.4 wt % | greater than 97% | less than 3% | about 0.4 wt % | about 0.4 wt % | about 0.4 wt %
